Entries after “also recorded” stand apart in the source; their conditions may differ.
Legend:
Type in all cases: in vivo
[1] = tested on: venom of Protobothrops mucrosquamatus; assay: Efficacy against death caused by hemotoxic venom in ICR mice (flavonoid pre-mixed with venom, intradermal injection); conditions: venom 2.5 × LD50 per mouse, flavonoid 50 nmole per mouse
Description: The ICR mice were randomly divided into four groups, which included a pathological control group, two experimental groups (i.e., experimental groups 1 and 2), and one comparative group (n=7 mice in each group). Next, a respective one of the isorhamnetin, the quercetin, and the apigenin was mixed with a venom of Protobothrops mucrosquamatus in a volume ratio of 1:20, followed by incubation at 37° C. for 30 minutes, thereby forming a respective mixture solution. Afterward, the respective ICR mouse of each of the experimental groups 1 and 2 and the comparative group was intradermally injected with a suitable amount of the mixture solution as shown in Table 2 below. In addition, the respective ICR mouse in the pathological control group was intradermally injected with the venom of Protobothrops mucrosquamatus.
Subsequently, the survival number of the ICR mice in each group was observed and recorded at every hour until 10 hours after injection with the treating agent. The viability percentage (%) of the ICR mice in each group was calculated using the following Equation (1):
where A=viability percentage (%)
B=survival number of the ICR mice at every hour until 10 hours after injection with treating agent

[2] = tested on: snake venom protein mixture (cardiotoxins and high molecular weight proteins from the venom of Naja atra); assay: Cutaneous ulceration caused by snake venom proteins in ICR mice, intradermal injection; conditions: for area of cutaneous ulcers compared to pathological control group (in words): 24th hour after injection, 50 nmole per mouse pre-mixed with 0.1 mL snake venom protein mixture, intradermal; for median effective dose (ED50) for reducing an area of a cutaneous ulcer: administered via intradermal injection
Text: (§1) For further study of the efficacy of isorhamnetin and quercetin in alleviating cutaneous ulceration caused by snake venom proteins, the applicants conducted experiments using a snake venom protein mixture containing snake venom proteins having a molecular weight of not lower than 43 kD and a cardiotoxin that might cause tissue necrosis, so as to avoid sudden death of the ICR mice due to other toxins that might have interfered with the observation.
(§2) First, cardiotoxins were isolated from a suitable amount of the venom of Naja atra with reference to the methods descried in SC Sue et al., (2001), Biochemistry, 40, 12782-12794. […] Next, the cardiotoxins and the high molecular weight proteins were mixed, so as to obtain a snake venom protein mixture containing 0.5 mg/mL of the cardiotoxins and 0.025 mg/mL of the high molecular weight proteins.
First, the ICR mice were randomly divided into three groups, including a pathological control group and two experimental groups (i.e., experimental groups 1 and 2) (n=7 mice in each group). Next, a respective one of the quercetin and isorhamnetin was mixed with a suitable amount of the snake venom protein mixture in a volume ratio of 1:20, followed by incubation at 37° C. for […], thereby forming a respective mixture solution. Afterward, the respective ICR mouse of the experimental groups 1 and 2 was intradermally injected with a suitable amount of the mixture solution as shown in Table 4 below. In addition, the respective ICR mouse in the pathological control group was intradermally injected with the snake venom protein mixture.
At the 24th hour after injection with the treating agent, cutaneous ulcers occurring in the ICR mice of each group were photographed and the area thereof was analyzed using ImageJ software.

venom of Naja nivea = assay: Efficacy of isorhamnetin in alleviating toxicity from neurotoxic venom in ICR mice (isorhamnetin injected 30 minutes after venom); conditions: 48th hour after injection; isorhamnetin 50 nmole per mouse 30 minutes after venom 2.5 × LD50
Description: To closely simulate conditions of an emergency treatment in which the subject was a victim of a venomous snake bite, in this application, the ICR mice were injected with the venom of Naja nivea and the isorhamnetin separately (with a time interval therebetween) instead of simultaneously (i.e., mixed in advance for injection).
First, the ICR mice were randomly divided into two groups, including a pathological control group (i.e., pathological control group 7) and an experimental group (i.e., experimental group 7) (n=7 mice in each group). Next, the respective ICR mouse in each group was intradermally injected with a suitable amount of the venom of Naja nivea (dose: 2.5×LD50 per mouse). After 30 minutes, the respective ICR mouse in the experimental group was intradermally injected again with a suitable amount of the isorhamnetin (dose: 50 nmole per mouse).
Subsequently, the survival number of the ICR mice in each group was observed and recorded at every hour until 48 hours after injection with the treating agent. The viability percentage (%) of the ICR mice in each group was calculated using the Equation (1).

[3] = tested on: snake venom protein mixture (cardiotoxins and high molecular weight proteins from the venom of Naja atra); assay: Cutaneous ulceration caused by snake venom proteins in ICR mice, topical administration; conditions: via topical administration
Text: as §1, §2
For further evaluating whether or not a similar result, as that of the experimental group 2 in Section A of this example, could be obtained when the isorhamnetin was applied via topical administration immediately after a subject suffered from a venomous snake bite, the following experiments were conducted.
First, 3.1 mg of the isorhamnetin was mixed with 1 mL of petroleum jelly in a melted state at 45° C., thereby obtaining an isorhamnetin ointment. […]

Compound	effect against death caused by a hemotoxic venom (in words) [1]	area of cutaneous ulcers compared to pathological control group (in words) [2]	median effective dose (ED50) for reducing an area of a cutaneous ulcer [2] [µM]	survival (in words) (venom of Naja nivea)	median effective dose (ED50) for reducing an area of a cutaneous ulcer [3] [µM]
O=c1c(O)c(-c2ccc(O)c(O)c2)oc2cc(O)cc(O)c12 [quercetin]	effective against death caused by a hemotoxic venom	significantly reduced	1200	–	–
COc1cc(-c2oc3cc(O)cc(O)c3c(=O)c2O)ccc1O [isorhamnetin]	effective against death caused by a hemotoxic venom	significantly reduced; also recorded: highest degree of reduction	200	could even survive until the 48th hour	600
O=c1cc(-c2ccc(O)cc2)oc2cc(O)cc(O)c12 [apigenin, reference compound]	may accelerate death	–	–	–	–

From patent US20240050398A1, “METHOD AGAINST SNAKE ENVENOMATION” (UBI PHARMA INC., priority 2022, published 2024)
